Results reported in publication PMC8708875 (Pharmaceutics, 2021).

Assays:
[1] = system: Akt phosphorylation (pAkt, S473); experiment: Akt phosphorylation by Western blotting in differentiated C2C12 cells; assay type: cell-based, mouse; settings: peptides 100 µM, insulin 100 nM, Western blot, three independent experiments
Description: C2C12 cells were used as a well-described model of skeletal muscle to evaluate the effect of peptides in gene expression, cell signaling, and glucose uptake. These cells were kindly provided by Prof. Patricia Brum, School of Physical Education and Prof. Anselmo Moriscot, Biomedical Science Institute, University of São Paulo, São Paulo, Brazil. C2C12 cells were cultured and maintained in high glucose Dulbecco’s modified Eagle’s medium (DMEM; Thermo Fisher Scientific, São Paulo, SP, Brazil) supplemented with 10% fetal bovine serum (FBS), 100 U/mL penicillin, and […] streptomycin in a humidified atmosphere of 5% CO2 at 37 °C. The cells were used in low pass (between passages 2 and 4) for all experiments to maintain the potential for differentiation of cultures. […]
Western blotting experiments were performed to evaluate the expression levels of specific proteins. […] Western blot bands were visualized with Super-Signal West Pico Chemiluminescent substrate (Thermo Scientific) using the ChemiDoc™ MP Imaging System (BioRad, Hercules, CA, USA), and quantified using ImageJ 1.49 software. All results are expressed as the means ± standard error of the mean (SEM). […] Data were statistically analyzed with GraphPad Prism software (GraphPad Software Inc, San Diego, CA, USA). […]

C57BL/6N (WT) mice = assay type: in vivo, mouse; settings: WT mice fasted 12 h, glucose 2 g/kg ip at time zero
Description: In vivo experiments were conducted with male C57BL/6N (WT) mice 12–16 weeks-old (University of São Paulo Medical School Animal Facility, SP, Brazil). Mice were maintained in individual ventilated cages (Amresco, SP, Brazil), under standardized conditions with an artificial 12 h dark–light cycle, with free access to standard chow (Nuvital Nutrientes S.A., Colombo, PR, Brazil) and drinking water ad libitum. The number of animals used was the minimum necessary to obtain statistically significant results and they were maintained and used in accordance with the guidelines of the National Council for Control of Animal Experiments (CONCEA), following international norms of animal care and maintenance. Thus, we hereby state that all experimental protocols were previously approved by University of São Paulo Ethic committee councils from Biomedical Science Institute (approval number for mice experimentation ICB/USP 22/2017).
WT mice were fasted for 12 h and blood samples were taken before and at 15, 30, 60, 90, and 120 min after the intraperitoneal (ip) injection of 2 g/kg glucose. Glycemia was measured using a glucometer (Accu-Check Performa, ROCHE, São Paulo, Brazil). Peptides were evaluated to affect glucose uptake either after ip or oral (by gavage) administration. After 20 min glucose was administrated (blood glucose levels reached 400 mg/dL), animals received ip or oral administration of either saline, insulin (0.75 IU/kg), or peptide (Ric2 or Ric4; 600 µg/kg). In addition, a group of animals received oral administration of either water or Ric2 or Ric4 (600 µg/kg). Glycemia was measured as indicated following vehicle, insulin, or peptide administration.

[2] = system: Erk and Akt phosphorylation in epididymal adipose and tibial muscle tissues; experiment: Erk and Akt phosphorylation in tissues after ip administration to WT mice; assay type: in vivo, mouse; settings: 600 µg/kg ip, tissues collected 30 min after administration
Description: Western blotting experiments were performed to evaluate the expression levels of specific proteins. Briefly, cells or tissues as indicated were solubilized by directly adding RIPA buffer (50 mM Tris HCl, 150 mM NaCl, 1.0% v/v, NP-40, 0.5% w/v, sodium deoxycholate, 1.0 mM ethylenediamine tetraacetic acid, EDTA, 0.1% w/v, sodium dodecyl sulphate, SDS, and 0.01% w/v sodium azide, pH of 7.4) containing protease (P8340; Sigma Aldrich, Sao Paulo, Brazil) and phosphatase (P5726, Sigma Aldrich, Sao Paulo, Brazil) inhibitors cocktails, followed by sonication with a micro-tip for 5 s. After 30 min of incubation on ice, samples were centrifuged for 30 min at 12,000× g. Proteins from supernatants (50 µg) were separated by 10% SDS-PAGE and transferred to nitrocellulose membranes for immunoblotting with mouse monoclonal anti-phospho extracellular signal-regulated kinase 1/2 (anti-pErk; Erk 1/2 phosphorylation at Thr202-Tyr204; 1:1000; Cell Signaling, Boston, MA, USA), and rabbit polyclonal anti-total extracellular signal-regulated kinase 1/2 (Erk; anti-total Erk 1/2, 1:1000; Cell Signaling, Boston, MA, USA) antibodies. Blots were also treated with rabbit anti-phospho Akt (S473) (anti-pAkt, 1:1000) and mouse polyclonal anti-total Akt (anti-Akt, 1:1000) (Cell Signaling, Boston, MA, USA) and anti-myogenin (1:1000, Abcam, UK). Protein normalization indicated was performed using rabbit polyclonal anti-glyceraldehyde 3-phosphate dehydrogenase (GAPDH; 1:2000; Proteimax Biotechnology, São Paulo, Brazil) antibodies or anti-β-actin mouse antiserum (1:2000; Sigma Aldrich, Sao Paulo, Brazil). Blots were incubated with horseradish peroxidase-conjugated secondary antibodies for 3 h at room temperature. Western blot bands were visualized with Super-Signal West Pico Chemiluminescent substrate (Thermo Scientific) using the ChemiDoc™ MP Imaging System (BioRad, Hercules, CA, USA), and quantified using ImageJ 1.49 software. All results are expressed as the means ± standard error of the mean (SEM). The statistical comparisons were performed using Student’s t-test or analysis of variance (ANOVA), followed by ad-hoc Tukey’s test (n = 7). Data were statistically analyzed with GraphPad Prism software (GraphPad Software Inc, San Diego, CA, USA).
Figure 5 Western blotting for ERK and AKT in epididymal adipose and tibial muscle tissues following ip administration of Ric4 to WT mice. Mice were treated ip with vehicle (Control) or Ric4 (600 µg/kg). Tissues were collected 30 min after the Ric4 administration and processed for Western blots as detailed in Section 2.5. The phosphorylation of either ERK or AKT in epididymal adipose tissue (A,B) and tibial muscle tissue (C,D) were analyzed using antibodies anti-pErk (A,C) or anti-pAkt (B,D). […]

| Substance | phosphorylation of Akt (pAkt over total Akt) [1] | blood glucose levels in GTT, ip administration (C57BL/6N (WT) mice; peptide 600 µg/kg ip 20 min after glucose) | blood glucose levels in GTT, oral administration (C57BL/6N (WT) mice; peptide 600 µg/kg orally by gavage) | Akt phosphorylation in epididymal adipose tissue [2] | Akt phosphorylation in tibial skeletal muscle [2] | Erk phosphorylation in epididymal adipose tissue [2] | Erk phosphorylation in tibial skeletal muscle [2] |
| --- | --- | --- | --- | --- | --- | --- | --- |
| Insulin | increased |  |  |  |  |  |  |
| LASVSTVLTSKYR [Ric4, intracellular peptide derived from hemoglobin alpha subunit, last 13 C-terminal amino acids] | activated | rapidly induced a decrease in blood glucose levels | decreased blood glucose levels | increased | not Akt phosphorylation | increased | increased |
